This passage reports IC50 results from BindingDB's records for doi:10.1016/j.bioorg.2015.02.002 (Bezmialem Vakif University, 2015).

Bounds are passed on as bounds.

Assay [1] deals with Carboxylic ester hydrolase (Equus caballus, UniProt Q9N1N9). Kind of assay: Anticholinesterase Activity Assays. The conditions noted are these: pH 8. The procedure: (§1) The substrates of the reaction were acetylthiocholine iodide and butyrylthiocholine iodide. 5,5'-dithio-bis(2-nitrobenzoic) acid (DTNB) was used for the measurement of the anticholinesterase activity. The solutions of the samples and galantamine in n-propanol were prepared at concentration of 4000 µg/mL. […] 10 µL of DTNB solution was prepared by adding 2.0 mL of pH 7.0 and 4.0 mL of pH 8.0 phosphate buffers to a mixture of 1.0 mL of 16 mg/mL DTNB and 7.5 mg/mL NaHCO3 in pH 7.0 phosphate buffers. The reaction was initiated by the addition of 10 µL (7.1 mM) acetylthiocholine iodide (or 0.79 mM butyrylthiocholine iodide). Propyl alcohol was used as a solvent to controls. The hydrolysis of these substrates was monitored at 412 nm.

The next assay deals with Acetylcholinesterase (Electrophorus electricus, UniProt O42275). Kind of assay: Anticholinesterase Activity Assays. The conditions noted are these: pH 8. The procedure:
as §1

Sequence of Carboxylic ester hydrolase (Q9N1N9 whole entry): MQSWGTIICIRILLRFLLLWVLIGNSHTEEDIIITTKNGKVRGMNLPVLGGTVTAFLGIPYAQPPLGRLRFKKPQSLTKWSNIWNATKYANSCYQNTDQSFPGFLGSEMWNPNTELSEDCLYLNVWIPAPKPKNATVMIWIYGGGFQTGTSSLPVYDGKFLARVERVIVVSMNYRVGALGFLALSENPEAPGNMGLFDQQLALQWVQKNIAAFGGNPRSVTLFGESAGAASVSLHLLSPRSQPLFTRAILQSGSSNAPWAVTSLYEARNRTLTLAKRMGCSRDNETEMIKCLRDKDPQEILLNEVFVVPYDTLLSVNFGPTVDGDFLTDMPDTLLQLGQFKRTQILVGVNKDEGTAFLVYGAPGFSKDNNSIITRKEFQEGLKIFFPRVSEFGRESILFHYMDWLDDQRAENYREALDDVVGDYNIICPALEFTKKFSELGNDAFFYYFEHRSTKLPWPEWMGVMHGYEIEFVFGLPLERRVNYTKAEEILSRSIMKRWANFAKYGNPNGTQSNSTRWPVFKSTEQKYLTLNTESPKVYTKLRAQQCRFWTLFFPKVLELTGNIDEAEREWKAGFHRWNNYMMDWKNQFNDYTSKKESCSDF
Sequence of Acetylcholinesterase (O42275 whole entry): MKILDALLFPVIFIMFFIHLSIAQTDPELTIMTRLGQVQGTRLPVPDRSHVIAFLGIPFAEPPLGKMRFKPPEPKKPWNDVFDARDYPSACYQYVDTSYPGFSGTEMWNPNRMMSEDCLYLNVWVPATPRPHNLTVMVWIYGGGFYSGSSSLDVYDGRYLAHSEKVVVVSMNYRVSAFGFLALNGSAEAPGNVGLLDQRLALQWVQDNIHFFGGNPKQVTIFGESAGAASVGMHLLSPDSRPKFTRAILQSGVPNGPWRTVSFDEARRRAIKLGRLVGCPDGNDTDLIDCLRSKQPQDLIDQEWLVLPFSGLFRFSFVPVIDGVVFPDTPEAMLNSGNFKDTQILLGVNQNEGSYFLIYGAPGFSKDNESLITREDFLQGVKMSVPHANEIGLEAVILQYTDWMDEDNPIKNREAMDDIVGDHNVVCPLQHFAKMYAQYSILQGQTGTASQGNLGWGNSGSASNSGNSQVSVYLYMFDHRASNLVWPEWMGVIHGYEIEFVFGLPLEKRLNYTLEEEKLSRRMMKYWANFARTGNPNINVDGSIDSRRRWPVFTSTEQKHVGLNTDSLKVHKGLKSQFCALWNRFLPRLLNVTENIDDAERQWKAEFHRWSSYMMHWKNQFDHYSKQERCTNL

`COc1ccc(NC(=O)Nc2nc(-c3cc4cccc(OC)c4oc3=O)cs2)cc1` [1-(4-(8-Methoxy-2-oxo-2H-chromen-3-yl)thiazol-2-yl)-3-(4-methoxyphenyl)urea (e15)]: the results for the IC50 (in assay [1]; at Acetylcholinesterase) were 99.6 µM and 119 µM, respectively.
On the same counts, the results for `O=C(Nc1ccccc1)Nc1nc(-c2cc3ccccc3oc2=O)cs1` [1-Phenyl-3-(4-(2-oxo-2H-chromen-3-yl)thiazol-2-yl)urea (e5)] are 74.6 µM and 73.2 µM.
Take `COc1cccc2cc(-c3csc(NC(=O)Nc4cccc([N+](=O)[O-])c4)n3)c(=O)oc12` [1-(4-(8-Methoxy-2-oxo-2H-chromen-3-yl)thiazol-2-yl)-3-(3-nitrophenyl)urea (e18)]: the results for the IC50 (in assay [1]; at Acetylcholinesterase) were 78.4 µM and 90 µM, respectively.
On the same counts, the results for `COc1ccc(NC(=O)Nc2nc(-c3cc4cc([N+](=O)[O-])ccc4oc3=O)cs2)cc1` [1-(4-Methoxyphenyl)-3-(4-(6-nitro-2-oxo-2H-chromen-3-yl)thiazol-2-yl)urea (e28)] are 118 µM and greater than 200 µM.
Turning to `COc1ccc(NC(=S)Nc2nc(-c3cc4cccc(OC)c4oc3=O)cs2)cc1` [1-(4-(8-Methoxy-2-oxo-2H-chromen-3-yl)thiazol-2-yl)-3-(4-methoxyphenyl)thiourea (f3)], the IC50 in assay [1] was 31.2 µM; on Acetylcholinesterase, 41.2 µM.
In the case of `COc1cccc2cc(-c3csc(NC(=O)Nc4ccc(F)cc4)n3)c(=O)oc12` [1-(4-Fluorophenyl)-3-(4-(8-methoxy-2-oxo-2H-chromen-3-yl)thiazol-2-yl)urea (e22)], the IC50 came to 63.3 µM in assay [1] and 115 µM at Acetylcholinesterase.
